According to ChEMBL document CHEMBL1150977, “A quantitative analysis of kinase inhibitor selectivity” (Nat Biotechnol, 2008):

Assays:
[1] = target: LIM domain kinase 2 (Homo sapiens, UniProt P53671)
[2] = target: T1, NUAK family SNF1-like kinase 1 (Homo sapiens, UniProt O60285)
T1 sequence (O60285 whole entry): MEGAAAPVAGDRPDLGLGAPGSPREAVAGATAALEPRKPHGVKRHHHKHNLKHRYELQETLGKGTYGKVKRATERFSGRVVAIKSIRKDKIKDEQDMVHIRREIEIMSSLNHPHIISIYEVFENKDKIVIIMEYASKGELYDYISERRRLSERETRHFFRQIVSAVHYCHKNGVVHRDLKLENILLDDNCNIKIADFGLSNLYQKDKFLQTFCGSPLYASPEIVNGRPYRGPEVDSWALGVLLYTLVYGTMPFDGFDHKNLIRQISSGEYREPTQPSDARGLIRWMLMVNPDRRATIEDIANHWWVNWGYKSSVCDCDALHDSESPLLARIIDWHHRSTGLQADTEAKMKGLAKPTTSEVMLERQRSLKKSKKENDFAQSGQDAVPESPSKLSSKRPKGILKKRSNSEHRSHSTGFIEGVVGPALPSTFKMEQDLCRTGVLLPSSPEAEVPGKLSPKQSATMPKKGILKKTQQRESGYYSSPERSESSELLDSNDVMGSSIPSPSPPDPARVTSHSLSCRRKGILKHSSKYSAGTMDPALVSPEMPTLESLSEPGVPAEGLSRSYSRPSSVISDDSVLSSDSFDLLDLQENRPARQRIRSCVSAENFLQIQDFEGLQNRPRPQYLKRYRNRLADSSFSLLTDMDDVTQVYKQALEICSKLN

[3] = target: Tyrosine-protein kinase ABL1 (Homo sapiens, UniProt P00519, M351T)
[4] = target: Tyrosine-protein kinase CSK (Homo sapiens, UniProt P41240)
Sequence of Tyrosine-protein kinase CSK (P41240 whole entry): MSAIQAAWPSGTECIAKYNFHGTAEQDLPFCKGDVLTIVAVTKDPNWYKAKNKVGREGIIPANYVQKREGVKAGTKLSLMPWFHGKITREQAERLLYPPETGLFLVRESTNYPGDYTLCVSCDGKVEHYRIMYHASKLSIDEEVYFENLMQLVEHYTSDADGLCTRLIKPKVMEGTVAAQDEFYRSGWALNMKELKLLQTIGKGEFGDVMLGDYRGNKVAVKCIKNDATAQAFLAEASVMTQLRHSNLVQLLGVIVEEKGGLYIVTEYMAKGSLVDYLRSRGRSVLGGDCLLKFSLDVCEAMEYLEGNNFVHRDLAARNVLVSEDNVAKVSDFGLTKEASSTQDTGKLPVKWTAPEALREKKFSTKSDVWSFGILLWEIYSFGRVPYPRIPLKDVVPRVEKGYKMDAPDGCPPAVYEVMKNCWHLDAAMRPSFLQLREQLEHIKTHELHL

[5] = target: ALK tyrosine kinase receptor (Homo sapiens, UniProt Q9UM73)
Sequence of ALK tyrosine kinase receptor (Q9UM73 whole entry): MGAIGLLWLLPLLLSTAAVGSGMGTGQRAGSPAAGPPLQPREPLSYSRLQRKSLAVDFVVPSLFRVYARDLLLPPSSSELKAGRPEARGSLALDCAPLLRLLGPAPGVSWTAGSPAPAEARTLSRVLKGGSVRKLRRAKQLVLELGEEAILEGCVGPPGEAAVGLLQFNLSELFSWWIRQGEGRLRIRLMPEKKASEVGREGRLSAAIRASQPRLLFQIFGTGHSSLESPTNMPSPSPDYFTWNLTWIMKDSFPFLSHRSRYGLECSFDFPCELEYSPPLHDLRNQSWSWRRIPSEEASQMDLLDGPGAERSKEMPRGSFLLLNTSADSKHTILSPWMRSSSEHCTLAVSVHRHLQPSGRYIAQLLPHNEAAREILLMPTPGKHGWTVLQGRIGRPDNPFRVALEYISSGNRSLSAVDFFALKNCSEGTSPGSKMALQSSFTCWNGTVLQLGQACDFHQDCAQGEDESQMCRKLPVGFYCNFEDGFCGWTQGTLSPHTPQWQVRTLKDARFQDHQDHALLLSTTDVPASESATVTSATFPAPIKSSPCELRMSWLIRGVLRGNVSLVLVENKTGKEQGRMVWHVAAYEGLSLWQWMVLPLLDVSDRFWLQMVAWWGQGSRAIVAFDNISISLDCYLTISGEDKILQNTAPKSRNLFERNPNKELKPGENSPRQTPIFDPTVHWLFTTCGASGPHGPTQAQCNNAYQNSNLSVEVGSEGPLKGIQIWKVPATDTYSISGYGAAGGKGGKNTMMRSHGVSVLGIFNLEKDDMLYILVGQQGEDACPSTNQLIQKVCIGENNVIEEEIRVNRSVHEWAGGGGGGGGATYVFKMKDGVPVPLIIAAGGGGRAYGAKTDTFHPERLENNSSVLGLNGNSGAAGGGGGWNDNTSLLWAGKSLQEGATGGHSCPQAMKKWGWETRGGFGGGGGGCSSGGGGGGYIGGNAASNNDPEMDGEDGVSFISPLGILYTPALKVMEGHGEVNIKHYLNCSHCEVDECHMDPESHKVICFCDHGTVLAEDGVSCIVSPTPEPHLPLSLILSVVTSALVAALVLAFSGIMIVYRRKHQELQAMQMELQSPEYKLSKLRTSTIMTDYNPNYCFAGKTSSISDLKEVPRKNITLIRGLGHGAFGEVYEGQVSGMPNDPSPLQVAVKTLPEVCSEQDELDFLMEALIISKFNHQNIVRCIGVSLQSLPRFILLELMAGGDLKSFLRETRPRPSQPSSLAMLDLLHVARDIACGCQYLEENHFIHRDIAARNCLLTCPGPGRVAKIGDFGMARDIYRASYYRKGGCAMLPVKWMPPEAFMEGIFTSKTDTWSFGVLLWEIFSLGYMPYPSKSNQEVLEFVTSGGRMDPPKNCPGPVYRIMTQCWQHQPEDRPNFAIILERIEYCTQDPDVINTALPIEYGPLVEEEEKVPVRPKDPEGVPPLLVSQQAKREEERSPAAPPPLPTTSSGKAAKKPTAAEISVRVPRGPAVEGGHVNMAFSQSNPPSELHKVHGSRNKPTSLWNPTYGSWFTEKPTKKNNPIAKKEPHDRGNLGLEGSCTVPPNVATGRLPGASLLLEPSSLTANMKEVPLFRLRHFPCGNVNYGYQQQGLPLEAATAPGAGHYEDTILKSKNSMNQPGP

[6] = target: Serine/threonine-protein kinase N2 (Homo sapiens, UniProt Q16513)
[7] = target: T2, Muscle, skeletal receptor tyrosine-protein kinase (Homo sapiens, UniProt O15146)
T2 sequence (O15146 whole entry): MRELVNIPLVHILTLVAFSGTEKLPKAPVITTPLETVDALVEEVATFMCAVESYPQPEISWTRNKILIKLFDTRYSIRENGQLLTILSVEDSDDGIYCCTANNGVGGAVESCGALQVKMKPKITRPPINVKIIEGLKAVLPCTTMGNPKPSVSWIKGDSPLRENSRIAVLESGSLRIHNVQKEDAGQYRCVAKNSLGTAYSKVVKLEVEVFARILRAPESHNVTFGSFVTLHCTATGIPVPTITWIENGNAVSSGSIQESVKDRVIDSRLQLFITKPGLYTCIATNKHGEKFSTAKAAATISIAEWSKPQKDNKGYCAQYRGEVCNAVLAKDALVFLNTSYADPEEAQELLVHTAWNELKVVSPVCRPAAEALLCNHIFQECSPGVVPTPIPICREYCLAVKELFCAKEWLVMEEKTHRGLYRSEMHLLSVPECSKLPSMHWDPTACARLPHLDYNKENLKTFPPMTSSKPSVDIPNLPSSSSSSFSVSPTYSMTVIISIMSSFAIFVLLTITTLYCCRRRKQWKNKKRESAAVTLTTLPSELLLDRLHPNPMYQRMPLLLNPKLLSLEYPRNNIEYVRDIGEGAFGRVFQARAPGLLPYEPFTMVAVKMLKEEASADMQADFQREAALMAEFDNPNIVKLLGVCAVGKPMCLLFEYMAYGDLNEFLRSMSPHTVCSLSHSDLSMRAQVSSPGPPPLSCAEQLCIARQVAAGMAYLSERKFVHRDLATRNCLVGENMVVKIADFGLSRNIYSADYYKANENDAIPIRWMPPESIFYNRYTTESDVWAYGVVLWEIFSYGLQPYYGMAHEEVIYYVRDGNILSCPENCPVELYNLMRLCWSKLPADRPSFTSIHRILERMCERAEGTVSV

[8] = target: Insulin-like growth factor 1 receptor (Homo sapiens, UniProt P08069)
[9] = target: Focal adhesion kinase 1 (Homo sapiens, UniProt Q05397)
Sequence of Focal adhesion kinase 1 (Q05397 whole entry): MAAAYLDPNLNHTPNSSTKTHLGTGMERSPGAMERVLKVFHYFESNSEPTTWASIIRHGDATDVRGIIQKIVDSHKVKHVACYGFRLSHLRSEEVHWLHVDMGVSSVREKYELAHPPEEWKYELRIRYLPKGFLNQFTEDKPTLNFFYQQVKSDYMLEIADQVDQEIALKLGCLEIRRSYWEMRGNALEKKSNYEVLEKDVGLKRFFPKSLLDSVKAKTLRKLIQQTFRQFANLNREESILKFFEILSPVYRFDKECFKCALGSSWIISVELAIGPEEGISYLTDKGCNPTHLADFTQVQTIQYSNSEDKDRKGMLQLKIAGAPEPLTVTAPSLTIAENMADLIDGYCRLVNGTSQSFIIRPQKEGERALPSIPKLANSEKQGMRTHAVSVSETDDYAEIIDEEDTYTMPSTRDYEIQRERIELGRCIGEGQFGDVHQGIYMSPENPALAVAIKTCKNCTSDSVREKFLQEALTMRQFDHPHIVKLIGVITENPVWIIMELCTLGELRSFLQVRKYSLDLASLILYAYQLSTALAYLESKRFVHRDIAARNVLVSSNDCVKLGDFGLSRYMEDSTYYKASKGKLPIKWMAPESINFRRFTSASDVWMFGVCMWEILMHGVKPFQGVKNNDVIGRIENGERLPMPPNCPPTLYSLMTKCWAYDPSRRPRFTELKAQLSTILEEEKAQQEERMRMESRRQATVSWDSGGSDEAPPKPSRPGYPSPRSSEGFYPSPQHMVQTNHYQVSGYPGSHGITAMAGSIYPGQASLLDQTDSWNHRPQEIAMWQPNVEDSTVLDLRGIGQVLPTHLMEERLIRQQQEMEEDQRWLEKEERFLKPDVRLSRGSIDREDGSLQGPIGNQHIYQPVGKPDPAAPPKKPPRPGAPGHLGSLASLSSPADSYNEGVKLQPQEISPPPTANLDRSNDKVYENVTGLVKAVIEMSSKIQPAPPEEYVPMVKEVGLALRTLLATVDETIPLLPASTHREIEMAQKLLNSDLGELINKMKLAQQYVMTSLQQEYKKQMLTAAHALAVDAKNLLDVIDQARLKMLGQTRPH

[10] = target: Calcium/calmodulin-dependent protein kinase type II subunit alpha (Homo sapiens, UniProt Q9UQM7)
Sequence of Calcium/calmodulin-dependent protein kinase type II subunit alpha (Q9UQM7 whole entry): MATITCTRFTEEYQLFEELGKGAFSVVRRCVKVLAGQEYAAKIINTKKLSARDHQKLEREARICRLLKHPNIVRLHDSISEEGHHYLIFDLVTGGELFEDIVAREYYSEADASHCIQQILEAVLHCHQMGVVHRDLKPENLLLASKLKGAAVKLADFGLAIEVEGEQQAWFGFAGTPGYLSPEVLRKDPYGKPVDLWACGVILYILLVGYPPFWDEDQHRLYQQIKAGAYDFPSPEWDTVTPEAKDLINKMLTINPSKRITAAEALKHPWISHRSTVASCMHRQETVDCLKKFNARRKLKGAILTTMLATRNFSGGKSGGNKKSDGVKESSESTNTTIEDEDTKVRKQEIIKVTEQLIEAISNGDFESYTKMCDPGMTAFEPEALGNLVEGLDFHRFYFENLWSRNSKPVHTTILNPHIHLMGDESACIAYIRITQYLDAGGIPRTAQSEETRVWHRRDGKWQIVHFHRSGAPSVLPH

[11] = target: Fibroblast growth factor receptor 4 (Homo sapiens, UniProt P22455)
Sequence of Fibroblast growth factor receptor 4 (P22455 whole entry): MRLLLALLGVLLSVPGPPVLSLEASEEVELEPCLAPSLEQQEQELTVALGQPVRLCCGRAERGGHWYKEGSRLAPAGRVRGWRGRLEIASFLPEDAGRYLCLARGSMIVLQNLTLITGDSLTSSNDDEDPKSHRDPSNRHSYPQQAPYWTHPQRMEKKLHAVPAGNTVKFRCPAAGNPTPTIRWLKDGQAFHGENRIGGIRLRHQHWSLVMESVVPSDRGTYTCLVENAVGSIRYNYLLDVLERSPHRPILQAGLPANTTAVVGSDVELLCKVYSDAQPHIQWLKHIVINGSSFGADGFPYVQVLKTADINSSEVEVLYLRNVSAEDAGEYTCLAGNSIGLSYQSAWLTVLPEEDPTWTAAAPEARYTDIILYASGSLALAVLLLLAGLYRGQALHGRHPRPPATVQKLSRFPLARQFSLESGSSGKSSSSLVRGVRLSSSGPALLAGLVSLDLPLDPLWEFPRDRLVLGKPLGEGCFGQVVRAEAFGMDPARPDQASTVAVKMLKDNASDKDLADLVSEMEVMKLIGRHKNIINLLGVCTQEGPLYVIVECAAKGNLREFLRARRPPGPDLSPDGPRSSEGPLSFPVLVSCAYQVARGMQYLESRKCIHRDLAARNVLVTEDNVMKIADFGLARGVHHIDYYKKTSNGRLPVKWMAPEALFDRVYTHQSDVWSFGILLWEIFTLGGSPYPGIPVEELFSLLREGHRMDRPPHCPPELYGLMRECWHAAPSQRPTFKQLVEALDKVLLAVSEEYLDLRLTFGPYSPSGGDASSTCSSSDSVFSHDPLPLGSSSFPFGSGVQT

Sequence of LIM domain kinase 2 (P53671 whole entry, the tested form may be a part): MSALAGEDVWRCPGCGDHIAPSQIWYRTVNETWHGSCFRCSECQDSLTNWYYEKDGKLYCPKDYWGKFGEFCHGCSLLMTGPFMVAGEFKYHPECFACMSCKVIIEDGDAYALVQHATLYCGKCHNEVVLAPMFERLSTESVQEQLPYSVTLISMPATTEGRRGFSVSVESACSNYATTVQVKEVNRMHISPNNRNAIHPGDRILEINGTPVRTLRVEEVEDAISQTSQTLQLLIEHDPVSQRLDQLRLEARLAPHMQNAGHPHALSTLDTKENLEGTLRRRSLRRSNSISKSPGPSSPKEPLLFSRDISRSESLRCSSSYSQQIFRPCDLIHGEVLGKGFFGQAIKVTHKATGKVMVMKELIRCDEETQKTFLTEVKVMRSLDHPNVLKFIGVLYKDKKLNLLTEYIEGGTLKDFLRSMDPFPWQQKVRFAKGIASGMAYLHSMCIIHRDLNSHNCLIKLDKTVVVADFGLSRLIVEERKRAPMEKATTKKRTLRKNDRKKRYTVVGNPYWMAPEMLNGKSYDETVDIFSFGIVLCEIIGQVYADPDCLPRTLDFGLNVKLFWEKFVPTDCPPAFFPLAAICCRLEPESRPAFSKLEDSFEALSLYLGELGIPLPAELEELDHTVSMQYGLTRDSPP

**Q.** For `CCN1CCN(Cc2ccc(NC(=O)Nc3ccc(Oc4cc(NC)ncn4)cc3)cc2C(F)(F)F)CC1` [AST-487], which Kd [1] is on record?
**A.** The Kd was > 10 µM.

**Q.** What does the source list for `COCC(=O)NC/C=C/c1ccc2ncnc(Nc3ccc(Oc4ccc(C)nc4)c(C)c3)c2c1` [CP-724714]?
**A.** Kd [2]: > 10 µM; Kd [3]: > 10 µM; Kd [4]: > 10 µM; Kd [5]: > 10 µM; Kd [6]: > 10 µM; Kd [7]: > 10 µM; Kd [8]: > 10 µM; Kd [9]: > 10 µM; Kd [10]: > 10 µM; Kd [1]: > 10 µM; Kd [11]: > 10 µM

**Q.** `Nc1nc(Nc2ccc(S(N)(=O)=O)cc2)nn1C(=O)c1c(F)cccc1F` [JNJ-7706621] was tested. Which Kd [4] did it give?
**A.** The Kd was > 10 µM.

**Q.** What about the Kd [7] of the same compound?
**A.** The Kd was > 10 µM.

**Q.** What about the Kd [11] of the same compound?
**A.** Its Kd is > 10 µM.

**Q.** Which Kd [2] does the source give for `CCOc1cc2ncc(C#N)c(Nc3ccc(F)c(Cl)c3)c2cc1NC(=O)/C=C/CN(C)C` [PELITINIB] here?
**A.** The Kd was > 10 µM.

**Q.** What about the Kd [5] of the same compound?
**A.** Its Kd is 7.1 µM.

**Q.** And the Kd [6]?
**A.** Its Kd is > 10 µM.

**Q.** And the Kd [7]?
**A.** The Kd was > 10 µM.

**Q.** What about the Kd [8] of the same compound?
**A.** The Kd was > 10 µM.

**Q.** And the Kd [10]?
**A.** The Kd was > 10 µM.

**Q.** What about the Kd [1] of the same compound?
**A.** Its Kd is > 10 µM.

**Q.** And the Kd [11]?
**A.** The Kd was > 10 µM.

**Q.** For `Oc1ccc(-c2nc(-c3ccncc3)c(-c3ccc(F)cc3)[nH]2)cc1` [SB-202190], which Kd [2] is on record?
**A.** The Kd was > 10 µM.

**Q.** And the Kd [3]?
**A.** Its Kd is > 10 µM.

**Q.** What about the Kd [4] of the same compound?
**A.** Its Kd is > 10 µM.

**Q.** And the Kd [5]?
**A.** Its Kd is > 10 µM.

**Q.** What about the Kd [6] of the same compound?
**A.** Its Kd is > 10 µM.

**Q.** What about the Kd [7] of the same compound?
**A.** The Kd was > 10 µM.

**Q.** What about the Kd [8] of the same compound?
**A.** The Kd was > 10 µM.

**Q.** What about the Kd [9] of the same compound?
**A.** The Kd was > 10 µM.

**Q.** What about the Kd [10] of the same compound?
**A.** The Kd was > 10 µM.

**Q.** And the Kd [1]?
**A.** Its Kd is > 10 µM.

**Q.** And the Kd [11]?
**A.** Its Kd is > 10 µM.

**Q.** How did the Kd [2] turn out when `NC(=O)c1ccc(-c2nc(-c3ccc4c(c3)OCO4)c(-c3ccccn3)[nH]2)cc1` [SB-431542] was run?
**A.** The Kd was > 10 µM.

**Q.** What about the Kd [3] of the same compound?
**A.** The Kd was > 10 µM.

**Q.** What about the Kd [4] of the same compound?
**A.** The Kd was > 10 µM.

**Q.** And the Kd [5]?
**A.** The Kd was > 10 µM.

**Q.** And the Kd [6]?
**A.** Its Kd is > 10 µM.

**Q.** What about the Kd [7] of the same compound?
**A.** The Kd was > 10 µM.

**Q.** What about the Kd [8] of the same compound?
**A.** The Kd was > 10 µM.

**Q.** What about the Kd [9] of the same compound?
**A.** The Kd was > 10 µM.

**Q.** What about the Kd [10] of the same compound?
**A.** The Kd was > 10 µM.

**Q.** What about the Kd [1] of the same compound?
**A.** The Kd was > 10 µM.

**Q.** And the Kd [11]?
**A.** Its Kd is > 10 µM.
